Damage level data for one compound are collected here from patent publication US9468209B2, “Method for eradicating weeds with derivatives of 3-acetyl-5-sec-butyl-4-hydroxy-3-pyrrolin-2-one” (priority 2012, dated 2016).

Common to all, as to experiment: Leaf piece damage test
Format in all cases: in vivo
Common to all, as to design: key: 4: The leaf completely dead; 3: Two third of the leaf withered; 2: One half of the leaf withered; 1: Only edge of the leaf withered; 0: Not damage at all
Details in all cases: 50 μg/mL, 4 days

The subject of assay [1] is Alligator weed (Alternanthera philoxeroides). The procedure: (§1) Compounds 7, 14, 15, 16, 40, 45, 48 and 53 were dissolved individually in small amount of methanol, and diluted with distilled water to concentration of 50 μg/mL. Methanol water solution and pure water were used as control. A piece of 5 mm leaf was taken from the second leaf of weed sample and was treated with the solution three times. 5 pieces of the leaf were prepared for each treatment. The damage data were collected 4 days later. The measurement of damage level is described in the Table 9.
(§2) The measurement of the plant damage was calculated by the formula: Damage Index=Σ(damage level×number of plants)×100/4/number of plants in each treatment.

The next assay concerns Ambrosia artemisiifolia. The procedure:
as §1, §2

The test system of assay [2] is Aster ageratoides var. scaberulus. The procedure:
as §1, §2

In another assay the test system is Cayratia japonica. The procedure:
as §1, §2

In another assay the test system is Chenopodium serotinum. The procedure: as §1, §2
For assay [3], the system named is Crabgrass (Digitaria sanguinalis). The procedure:
as §1, §2

The test system of another assay is Cyperus difformis. The procedure: as §1, §2
Another assay deals with Dichondra repens. The procedure: as §1, §2
The subject of another assay is Equal alopecurus. The procedure:
as §1, §2

A further assay has as its system Erigeron annuus. The procedure: as §1, §2
The test system of the next assay is Eupatorium adenophorum. The procedure: as §1, §2
In assay [4] the test system is Green foxtail (Setaria viridis). The procedure:
as §1, §2

For a further assay, the system named is Humulus scandens. The procedure: as §1, §2
For a further assay, the system named is Lamium amplexicaule. The procedure:
as §1, §2

The subject of assay [5] is Parthenocissus tricuspidata. The procedure: as §1, §2
A further assay relates to Pharbitis nil. The procedure:
as §1, §2

Assay [6] has as its system Pigweed (Amaranthus spinosus). The procedure:
as §1, §2

For a further assay, the system named is Polygonum lapathifolium. The procedure:
as §1, §2

The test system of a further assay is Polygonum perfoliatum. The procedure: as §1, §2
Another assay has as its system Sonchus asper. The procedure:
as §1, §2

In another assay the test system is Veronica percica. The procedure: as §1, §2
A further assay relates to Youngia japonica. The procedure: as §1, §2

In the case of `CCCCC1NC(=O)C(C(C)=O)=C1O` (stereo not shown) [Compound 14], the Damage level in [1] is reported as 3; in the assay with Ambrosia artemisiifolia it was 3; in assay [2], 3; in the assay with Cayratia japonica it was 2; in the assay on Chenopodium serotinum, 2; in assay [3], 4. For the same compound, the Damage level is 3 with Cyperus difformis; 2 with Dichondra repens; 3 in the assay on Equal alopecurus; 3 with Erigeron annuus; 3 in the assay on Eupatorium adenophorum; 3 in assay [4]. The Damage level (in the assay with Humulus scandens; in the assay with Lamium amplexicaule; in [5]; in the assay on Pharbitis nil; in [6]; in the assay with Polygonum lapathifolium) was 2 each time. Besides, the Damage level with Polygonum perfoliatum stood at 2; in the assay on Sonchus asper it was 3; with Veronica percica it was 2; in the assay with Youngia japonica, 3.
